Reference: ChEMBL document CHEMBL1201862, “PubChem BioAssay data set” (2004)
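Results reflect a 48-hour exposure of cells in 96-well plates to compound at five concentrations. Abbreviation: GI50, concentration required for 50% inhibition of growth.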 Active and inactive are the calls of the source. Cut-off read from the data, not from the text of the source: active = GI50 up to about 1.1 µM and inactive = higher.

Experiments:
Experiment in all cases: inhibition of tumour cell growth, NCI panel, 48 h
DLD-1 = system: DLD-1
DMS-273 = system: DMS-273
HOP-18 = system: HOP-18
M19-MEL = system: M19-MEL
RXF 631 = system: RXF 631
SNB-78 = system: SNB-78
XF498 = system: XF498
DMS-114 = system: DMS-114
KM-20L2 = system: KM-20L2

Row | SMILES | GI50 (DLD-1) | GI50 (DMS-273) | GI50 (HOP-18) | GI50 (M19-MEL) | GI50 (RXF 631) | GI50 (SNB-78) | GI50 (XF498) | GI50 (DMS-114) | GI50 (KM-20L2)
1 | O=C(NC(=O)c1c(F)cccc1F)Nc1cccc(Oc2ncc(Cl)cn2)c1 | > 100 µM (inactive) | 2.45 µM (inactive) | > 100 µM (inactive) | > 100 µM (inactive) | > 100 µM (inactive) | > 100 µM (inactive) | 19.7 µM (inactive) |  | 
2 | COC(=O)CCC1CCc2c(OC)ccc(OC)c2C1=O (stereo not drawn) | > 100 µM (inactive) | > 100 µM (inactive) |  |  |  | > 100 µM (inactive) |  | > 100 µM (inactive) | > 100 µM (inactive)
3 | Nc1ccc(Sc2c3ccccc3nc3ccccc23)cc1 | 6 µM (inactive) | 14.1 µM (inactive) | 22.3 µM (inactive) | 20.5 µM (inactive) |  | 22.4 µM (inactive) | 14.4 µM (inactive) | 18.2 µM (inactive) | 16.7 µM (inactive)
4 | Cc1nc2ccccc2c(=O)n1NC(=S)Nc1cccc(Cl)c1 | > 100 µM (inactive) | > 100 µM (inactive) | > 100 µM (inactive) | > 100 µM (inactive) |  |  |  |  | 
5 | [N-]=[N+]=NC1C2CC3CC(C2)CC1C3 (stereo not drawn) |  | > 100 µM (inactive) | > 100 µM (inactive) | > 100 µM (inactive) | > 100 µM (inactive) | > 100 µM (inactive) |  | > 100 µM (inactive) | > 100 µM (inactive)
6 | O=C(Nc1ccc(S(=O)(=O)N[C@@H](C(=O)O)c2ccccc2)cc1)c1ccc(F)cc1 | > 100 µM (inactive) | > 100 µM (inactive) | > 100 µM (inactive) | > 100 µM (inactive) |  |  | 67.5 µM (inactive) |  | > 100 µM (inactive)
7 | COc1cc([C@@H]2c3cc4c(cc3[C@@H](NC(=O)c3cccc([N+](=O)[O-])c3)C3COC(=O)[C@@H]32)OCO4)cc(OC)c1O (stereo partly drawn) | 3.33 µM (inactive) | 0.149 µM (active) |  | 2.55 µM (inactive) | 1.31 µM (inactive) | 4.73 µM (inactive) |  | 0.548 µM (active) | 2.82 µM (inactive)
8 | COc1ccc(C(=O)C(c2ccc(OC)cc2)C2OC(=O)C(Cl)=C2Cl)cc1 (stereo not drawn) | > 100 µM (inactive) |  | > 100 µM (inactive) | > 100 µM (inactive) |  | > 100 µM (inactive) | > 100 µM (inactive) | > 100 µM (inactive) | 
9 | O/N=C/c1cc2c(cc1Br)OCO2 | > 100 µM (inactive) | > 100 µM (inactive) | > 100 µM (inactive) | > 100 µM (inactive) | > 100 µM (inactive) | > 100 µM (inactive) |  |  | > 100 µM (inactive)
10 | OCC(O)C(OC1OC(CO)C(O)C(O)C1O)c1nn(-c2ccc(Cl)cc2)c2nc3cc(Cl)c(Cl)cc3nc12 (stereo not drawn) | > 100 µM (inactive) |  |  | > 100 µM (inactive) |  | > 100 µM (inactive) | > 100 µM (inactive) | > 100 µM (inactive) | > 100 µM (inactive)
11 | C[C@]12CCC(=O)C=C1CC[C@@H]1C2CC[C@@]2(C)C1CC[C@@H]2OC(=O)C12OC1CCC2=O (stereo partly drawn) |  | 15.5 µM (inactive) | 17.4 µM (inactive) | 16.7 µM (inactive) |  | 16.8 µM (inactive) | 13.9 µM (inactive) | 17.7 µM (inactive) | 18.7 µM (inactive)
12 | Clc1ccc(OCCSCCCCCCCCCCSCCOc2ccc(Cl)cc2)cc1 | > 100 µM (inactive) | > 100 µM (inactive) | > 100 µM (inactive) | > 100 µM (inactive) |  | > 100 µM (inactive) |  | > 100 µM (inactive) | > 100 µM (inactive)
13 | CC(C)(C)c1nc2c(o1)C(=O)c1ccccc1C2=O | 5.83 µM (inactive) | 5.08 µM (inactive) | 7.19 µM (inactive) | 1.25 µM (inactive) | 5.92 µM (inactive) | 11.5 µM (inactive) | 2.67 µM (inactive) | 2.23 µM (inactive) | 22.1 µM (inactive)
14 | COC(=O)C12C3C4C1C1C2C3C41C(=O)OC(C)(C)C (stereo not drawn) | > 47.9 µM (inactive) | > 44.1 µM (inactive) | > 100 µM (inactive) | > 100 µM (inactive) | > 100 µM (inactive) | > 100 µM (inactive) | > 100 µM (inactive) | > 44.8 µM (inactive) | > 100 µM (inactive)
15 | CCN(CC)CCOC(=O)Cc1cccc2c(=O)cc(-c3ccccc3)oc12 | 94.8 µM (inactive) | 361 µM (inactive) | 78.2 µM (inactive) | 84.5 µM (inactive) |  | 84.9 µM (inactive) | 18 µM (inactive) | 31.8 µM (inactive) | 95.3 µM (inactive)
16 | COC(=O)C(C(=O)C(=O)Nc1cccc(O)c1)c1nc2ccc(Cl)cc2nc1O (stereo not drawn) | > 100 µM (inactive) |  | 98.9 µM (inactive) | > 100 µM (inactive) | > 100 µM (inactive) | > 100 µM (inactive) |  | > 100 µM (inactive) | > 100 µM (inactive)
17 | Cc1cc2c(=O)cc(-c3ccc(C(F)(F)F)cc3)oc2c(C(=O)O)c1C | > 100 µM (inactive) | > 100 µM (inactive) | > 100 µM (inactive) | > 100 µM (inactive) | > 100 µM (inactive) | > 100 µM (inactive) | > 100 µM (inactive) | > 100 µM (inactive) | > 100 µM (inactive)
18 | O=S(=O)(O)C1=C2Sc3ccccc3N=C2c2ccccc2C1 | 15.3 µM (inactive) | 15.5 µM (inactive) | 12.4 µM (inactive) |  | 16 µM (inactive) | 17.8 µM (inactive) | 17.7 µM (inactive) | 10.3 µM (inactive) | 18.4 µM (inactive)
19 | c1ccc(C2[C@@H]3CCCc4ccccc4C3=NN2c2ccccc2)cc1 (stereo partly drawn) | 51.6 µM (inactive) |  |  | > 100 µM (inactive) |  | > 100 µM (inactive) | 28.2 µM (inactive) | > 100 µM (inactive) | > 100 µM (inactive)
20 | Oc1cc(-c2ccccn2)nc2ccc(Cl)cc12 | 41.5 µM (inactive) |  | 57.5 µM (inactive) | 24.8 µM (inactive) |  | 80.7 µM (inactive) | 21.5 µM (inactive) |  | 
